Each structure is given as a SMILES string. A value given as a limit tells only on which side of the number the result lay.

Data set [1] is described as follows: Free plasma concentrations in the rat CCI studies. Conditions: Sprague Dawley; for concentration at 2.5 h: in vivo. The source says: It is important to ascertain whether any concluded synergy observed in animals or man is due solely to pharmacokinetic interactions.
Data set [2] can be described thus: clinical. Conditions: human, in vivo, po.
From the text: (§1) The pharmacokinetics of sildenafil after oral tablet administration have been extensively studied in healthy volunteers. The pharmacokinetics of 1-(2-ethoxyethyl)-5-[ethyl(methyl)amino]-N-mesyl-7-[(4-methyl-2-pyridyl)amino]-1H-pyrazolo[4,3-o]pyrimidine-3-carboxamide have been recently studied in several healthy volunteer studies.
Data set [3] deals with CCI-induced static allodynia. Briefly: Chronic constriction injury (CCI) rat model of neuropathic pain, assessment of static allodynia (von Frey hairs, paw withdrawal threshold). In kind it is in vivo.
Method: Animals: Male Sprague Dawley rats (150-250 g at the time of surgery), obtained from Charles River, (Manston, Kent, U.K.) were housed in groups of 3. All animals were kept under a 12 hour light/dark cycle (lights on at 07 h 00 min) with food and water ad libitum. All experiments were carried out by an observer blind to the treatments and in accordance with the Home Office Animals (Scientific Procedures) Act 1986.
The CCI of sciatic nerve was performed as previously described by Bennett and Xie (Bennett G J, Xie Y K. A peripheral mononeuropathy in rat that produces disorders of pain sensation like those seen in man. Pain: 33:87-107, 1988). Animals were anaesthetised with a 2% isofluorane/O2 mixture. The right hind thigh was shaved and swabbed with 1% iodine. Animals were then transferred to a homeothermic blanket for the duration of the procedure and anaesthesia maintained during surgery via a nose cone. The skin was cut along the line of the thighbone and the common sciatic nerve was exposed Four ligatures (4-0 silk) were tied loosely around the nerve, 1 cm proximally to the trifurcation, with approx 1 mm spacing. The incision was closed in layers.
Animals were habituated to wire bottom test cages prior to the assessment of allodynia. Static allodynia was evaluated by application of calibrated von Frey hairs (Stoelting, Wood Dale, Ill., USA.) in ascending order of force (0.8, 1, 1.4, 2, 4, 6, 8, 10, 15 and 26 grams) to the plantar surface of hind paws. Each von Frey hair was applied to the paw for a maximum of 6 seconds, or until a withdrawal response occurred. Once a withdrawal response to a von Frey hair was established, the paw was re-tested, starting with the filament below the one that produced a withdrawal, and subsequently with the remaining filaments in descending force sequence until no withdrawal occurred. The highest force of 26 g lifted the paw as well as eliciting a response, thus represented the cut off point. Each animal had both hind paws tested in this manner. The lowest amount of force required to elicit a response was recorded as paw withdrawal threshold (PWT) in grams. Static allodynia was defined as present if animals responded to a stimulus of, or less than, 4 g, which is innocuous in naive rats (Field M J, Bramwell S, Hughes J, Singh L. Detection of static and dynamic components of mechanical allodynia in rat models of neuropathic pain: are they signalled by distinct primary sensory neurones? Pain, 1999; 83:303-11).
For data set [4] the following is noted: human, in vivo, po.
From the text: as §1
[5] abbreviates: oral dosing, CCI-induced static allodynia, rat (FIG. 1).

In the case of `CCOCCn1nc(C(=O)NS(C)(=O)=O)c2nc(N(C)CC)nc(Nc3cc(C)ccn3)c21`, in data set [1] (plasma, oral, 1 mg/kg), the concentration at 1.3 h is at most 0.0102 µM and the concentration at 4.3 h was at most 0.0161 µM. Moreover, the half-life in data set [2] was in the range of 10 to 15 h. Moreover, the “effect on any allodynia endpoint” value in data set [3] (compound alone, oral dosing at 0.1 to 1 mg/kg (FIG. 2)) is reported as “no effect observed”.

On to `CC(C)C[C@H](CN)CC(=O)O` [pregabalin, (S)-(+)-4-amino-3-(2-methylpropyl)butanoic acid], for which, in data set [1] (3 mg/kg), the concentration at 2.5 h worked out at 17.8 µM. Moreover, the concentration at 2.5 h in data set [1] (20 mg/kg) came out at 89.8 µM. Also, in data set [3] (setting [5]), the “dose at which a full effect is achieved” value came out at 20 mg/kg and the “minimum effective dose (MED)” value is 3 mg/kg. Besides, the “effect on static allodynia endpoints” value in data set [3] (pregabalin alone 10 mg/kg, 2 hours after dosing (FIG. 3)) is recorded as “partially reversed”.

In turn, `CCCc1nn(C)c2c(=O)[nH]c(-c3cc(S(=O)(=O)N4CCN(C)CC4)ccc3OCC)nc12` [sildenafil, 5-[2-ethoxy-5-(4-methyl-1-piperazinyl-sulphonyl)phenyl]-1-methyl-3-n-propyl-1,6-dihydro-7H-pyrazolo[4,3-d]pyrimidin-7-one] showed a half-life in data set [2] of 4 h. The “steady state peak to trough ratio of plasma concentration time profile” value in data set [4] was around 4 fold.

(Values after patent US20080293746A1 (priority 2007, published 2008).)
